The compounds below were run on rice blast fungi.
Type: in vivo, Pyricularia grisea

Going from `Cl.Cn1c(CC(=O)Nc2ccccc2F)csc1=Nc1ccc(F)c(Cl)c1` [Compound 149, 2-(3-chloro-4-fluorophenylimino)-3-methyl-4-[N-(2-fluorophenyl)carbamoylmethyl]-1,3-thiazol-4-ine hydrochloride] to `Cc1ccc(NC(=O)Cc2csc(=Nc3ccc(Oc4ccccc4)cc3)n2C)cc1Cl.Cl` [Compound 240, 3-methyl-2-(4-phenoxyphenylimino)-4-[N-(3-chloro-4-methylphenyl)carbamoylmethyl]-1,3-thiazol-4-ine hydrochloride], the “Inhibiting Ratio (%) (at 250 ppm)” value falls from 95% to 88%.

Compared with `Br.Cc1cc(C)c(N=c2scc(CC(=O)Nc3ccccc3)n2C)c(C)c1` [Compound 321, 2-(2,4,6-trimethylphenylimino)-3-methyl-4-N-phenylcarbamoyl methyl-1,3-thiazol-4-ine hydrobromide], `Br.Cc1ccc(NC(=O)Cc2csc(=Nc3cc(Cl)ccc3C)n2C)cc1` [Compound 34, 2-(5-chloro-2-methylphenylimino)-3-methyl-4-[N-(4-methylphenyl)carbamoylmethyl]-1,3-thiazol-4-ine hydrobromide] is higher in “Inhibiting Ratio (%) (at 250 ppm)” value: 97% for the first, 100% for the second.

Going from “2-(2,4-difluorophenylimino)-3-methyl-4-[N-(methoxyphenyl)carbamoylmethyl]-1,3-thiazol-4-ine [Compound 340]” to `Br.Cc1ccc(NC(=O)Cc2csc(=Nc3ccc(F)c(Cl)c3)n2C)cc1` [Compound 51, 2-(3-chloro-4-fluorophenylimino)-3-methyl-4-[N-(4-methylphenyl)carbamoylmethyl]-1,3-thiazol-4-ine hydrobromide], the “Inhibiting Ratio (%) (at 250 ppm)” value rises from 94% to 99%.

First: Cl.Cn1c(CC(=O)Nc2ccc(Cl)cc2)csc1=Nc1ccc(F)cc1F [Compound 159, 2-(2,4-difluorophenylimino)-3-methyl-4-[N-(4-chlorophenyl)carbamoylmethyl]-1,3thiazol-4-ine hydrochloride]
Second: Br.Cc1ccc(NC(=O)Cc2csc(=Nc3ccc(Cl)cc3F)n2C)cc1 [Compound 50, 2-(4-chloro-2-fluorophenylimino)-3-methyl-4-[N-(4-methylphenyl)carbamoylmethyl]-1,3-thiazol-4-ine hydrobromide]
The “Inhibiting Ratio (%) (at 250 ppm)” value of the first is lower: 92% for the first, 100% for the second.

Going from `CC(C)Oc1cc(N=c2scc(CC(=O)Nc3ccc(C#N)cc3)n2C)c(F)cc1Cl.Cl` [Compound 226, 2-(4-chloro-5-isopropoxy-2-fluorophenylimino)-3-methyl-4-[N-(4-cyanophenyl)carbamoylmethyl]-4-thiazoline hydrochloride] to `Cc1ccc(NC(=O)Cc2csc(=Nc3ccccc3F)n2C)cc1.Cl` [Compound 167, 2-(2-fluorophenylimino)-3-methyl-4-[N-(4-methylphenyl)carbamoylmethyl]-1,3-thiazol-4-ine hydrochloride], the “Inhibiting Ratio (%) (at 250 ppm)” value falls from 92% to 88%.

First: Br.Cn1c(CC(=O)Nc2cccc(Cl)c2)csc1=Nc1cccc(F)c1 [Compound 59, 2-(3-fluorophenylimino)-3-methyl-4-[N-(3-chlorophenyl)carbamoylmethyl]-1,3-thiazoyl-4-ine hydrobromide]
Second: Br.Cc1ccccc1N=c1scc(CC(=O)Nc2ccc(Cl)cc2)n1C [Compound 310, 2-(2-methylphenylimino)-3-methyl-4-[N-(4-chlorophenyl)carbamoylmethyl]1,3-thiazol-4-ine hydrobromide]
The “Inhibiting Ratio (%) (at 250 ppm)” value of the first is lower: 96% for the first, 100% for the second.

`Br.COc1ccc(NC(=O)Cc2csc(=Nc3ccc(C)cc3)n2C)cc1` [Compound 309, 2-(4-methylphenylimino)-3-methyl-4-[N-(4-methoxyphenyl)carbamoylmethyl]-1,3-thiazol-4-ine hydrobromide] and `COc1ccc(NC(=O)Cc2csc(=Nc3ccc(C#N)cc3)n2C)cc1` [Compound 330, 2-(4-cyanophenylimino)-3-methyl-4-[N-(4-methoxyphenyl)carbamoylmethyl]-1,3-thiazol-4-ine] are the same in “Inhibiting Ratio (%) (at 250 ppm)” value: 100% for the first, 100% for the second.

First: Br.COc1ccc(N=c2scc(CC(=O)Nc3ccc(OC)cc3)n2C)cc1 [Compound 307, 2-(4-methoxyphenylimino)-3-methyl-4-[N-(4-methoxyphenyl)carbamoylmethyl]-1,3-thiazol-4-ine hydrobromide]
Second: Br.Cc1ccc(NC(=O)Cc2csc(=Nc3ccc(Cl)c(C(F)(F)F)c3)n2C)cc1 [Compound 53, 2-(4-chloro-3-trifluoromethylphenylimino)-3-methyl-4-[N-(4-methylphenyl)carbamoylmethyl]-1,3-thiazol-4-ine hydrobromide]
The “Inhibiting Ratio (%) (at 250 ppm)” value of the first is higher: 100% for the first, 99% for the second.

First: Br.COc1ccc(NC(=O)Cc2csc(=Nc3ccc(F)cc3)n2C)cc1 [Compound 315, 2-(4-fluorophenylimino)-3-methyl-4-[N-(4-methoxyphenyl)carbamoylmethyl]-1,3-thiazol-4-ine hydrobromide]
Second: Br.Cn1c(CC(=O)Nc2ccccc2)csc1=Nc1ccc(C(F)(F)F)cc1 [Compound 2, 2-(4-trifluoromethylphenylimino)-3-methyl-4-(N-phenylcarbamoylmethyl)-1,3-thiazol-4-ine hydrobromide]
The “Inhibiting Ratio (%) (at 250 ppm)” value of the first is higher: 97% for the first, 86% for the second.

Compared with `Cl.Cn1c(CC(=O)Nc2ccc(Br)cc2)csc1=Nc1ccc(OC(F)(F)F)cc1` [Compound 139, 2-(4-trifluoromethoxyphenylimino)-3-methyl-4-[N-(4-bromophenyl)carbamoylmethyl]-1,3-thiazol-4-ine hydrochloride], `Br.COc1ccc(NC(=O)Cc2csc(=Nc3ccccc3C)n2C)cc1` [Compound 312, 2-(2-methylphenylimino)-3-methyl-4-[N-(4-methoxyphenyl)carbamoylmethyl]-1,3-thiazol-4-ine hydrobromide] is lower in “Inhibiting Ratio (%) (at 250 ppm)” value: 99% for the first, 25% for the second.

First: Br.Cn1c(CC(=O)Nc2cccc(Cl)c2)csc1=Nc1ccc(C#N)cc1 [Compound 57, 2-(4-cyanophenylimino)-3-methyl-4-[N-(3-chlorophenyl)carbamoylmethyl]-1,3-thiazol-4-ine hydrobromide]
Second: Br.Cn1c(CC(=O)Nc2ccccc2)csc1=Nc1ccc(Cl)cc1F [Compound 42, 2-(4-chloro-2-fluorophenylimino)-3-methyl-4-(N-phenylcarbamoylmethyl)-1,3-thiazol-4-ine hydrobromide]
The “Inhibiting Ratio (%) (at 250 ppm)” value of the first is lower: 96% for the first, 100% for the second.

Going from `Br.Cc1ccc(NC(=O)Cc2csc(=Nc3ccc(OC(F)(F)F)cc3)n2C)cc1` [Compound 47, 2-(4-trifluoromethoxyphenylimino)-3-methyl-4-[N-(4-methylphenyl)carbamoylmethyl]-1,3-thiazol-4-ine hydrobromide] to `COc1ccc(NC(=O)Cc2csc(=Nc3ccc(Cl)cc3F)n2C)cc1.Cl` [Compound 207, 2-(4-chloro-2-fluorophenylimino)-3-methyl-4-[N-(4-methoxyphenyl)carbamoylmethyl]-1,3-thiazol-4-ine hydrochloride], the “Inhibiting Ratio (%) (at 250 ppm)” value falls from 100% to 93%.

First: Br.Cc1cc(Cl)ccc1N=c1scc(CC(=O)Nc2ccccc2)n1C [Compound 25, 2-(4-chloro-2-methylphenylimino)-3-methyl-4-(N-phenylcarbamoylmethyl)-1,3-thiazol-4-ine hydrobromide]
Second: Br.COc1ccccc1NC(=O)Cc1csc(=Nc2ccc(C(C)(C)C)cc2)n1C [Compound 327, 2-(4-butyl(t-)phenylimino)-3-methyl-4-[N-(2-methoxyphenyl)carbamoylmethyl]-1,3-thiazol-4-ine hydrobromide]
The “Inhibiting Ratio (%) (at 250 ppm)” value of the first is higher: 100% for the first, 62% for the second.

Compared with `Cl.Cn1c(CC(=O)Nc2ccc(Cl)cc2)csc1=Nc1cccc(F)c1` [Compound 129, 2-(3-fluorophenylimino)-3-methyl-4-[N-(4-chlorophenyl)carbamoylmethyl]-1,3-thiazol-4-ine hydrochloride], `Br.Cn1c(CC(=O)Nc2ccc(Cl)cc2)csc1=Nc1ccc(F)cc1` [Compound 316, 2-(4-fluorophenylimino)-3-methyl-4-[N-(4-chlorophenyl)carbamoylmethyl]-1,3-thiazol-4-ine hydrobromide] is higher in “Inhibiting Ratio (%) (at 250 ppm)” value: 96% for the first, 100% for the second.

Going from `Cl.Cn1c(CC(=O)Nc2ccc(Cl)cc2)csc1=Nc1ccc(C(F)(F)F)cc1` [Compound 98, 2-(4-trifluoromethylphenylimino)-3-methyl-4-[N-(4-chlorophenyl)carbamoylmethyl]-1,3-thiazol-4-ine hydrochloride] to `Cl.Cn1c(CC(=O)Nc2ccc(OC(F)(F)F)cc2)csc1=Nc1ccc(F)cc1F` [Compound 192, 2-(2,4-difluorophenylimino)-3-methyl-4-[N-(4-trifluoromethoxyphenyl)carbamoylmethyl]-1,3-thiazol-4-ine hydrochloride], the “Inhibiting Ratio (%) (at 250 ppm)” value falls from 96% to 92%.

Going from `Br.COc1ccc(N=c2scc(CC(=O)Nc3cccc(C(F)(F)F)c3)n2C)cc1` [Compound 36, 2-(4-methoxyphenylimino)-3-methyl-4-[N-(3-trifluoromethylphenyl)carbamoylmethyl]-1,3-thiazol-4-ine hydrobromide] to `COc1ccc(NC(=O)Cc2csc(=Nc3cc(OC(C)C)c(Cl)cc3F)n2C)cc1.Cl` [Compound 208, 2-(4-chloro-5-isopropoxy-2-fluorophenylimino)-3-methyl-4-[N-(4-methoxyphenyl)carbamoylmethyl]-1,3-thiazol-4-ine hydrochloride], the “Inhibiting Ratio (%) (at 250 ppm)” value falls from 98% to 97%.

Going from `Br.CC(C)Oc1cccc(N=c2scc(CC(=O)Nc3ccc(Cl)cc3)n2C)c1` [Compound 303, 2-(3-isopropoxyphenylimino)-3-methyl-4-[N-(4-chlorophenyl)carbamoylmethyl]-1,3-thiazol-4-ine hydrobromide] to `CC(C)Oc1cc(N=c2scc(CC(=O)Nc3ccc(Br)cc3)n2C)c(F)cc1Cl.Cl` [Compound 185, 2-(4-chloro-5-isopropoxy-2-fluorophenylimino)-3-methyl-4-[N-(4-bromophenyl)carbamoylmethyl]-1,3-thiazol-4-ine hydrochloride], the “Inhibiting Ratio (%) (at 250 ppm)” value falls from 100% to 97%.

With `Br.Cc1ccc(N=c2scc(CC(=O)Nc3cccc(Cl)c3)n2C)cc1Cl` [Compound 62, 2-(3-chloro-4-methylphenylimino)-3-methyl-4-[N-(3-chlorophenyl)carbamoylmethyl]-1,3-thiazol-4-ine hydrobromide] the “Inhibiting Ratio (%) (at 250 ppm)” value was 100%.

Reference: patent US6921770B2 (priority 2000, dated 2005)
